Test results taken from publication PMC10660337, “Mutate and Conjugate: A Method to Enable Rapid In-Cell Target Validation” (ACS Chemical Biology, 2023).
Several values for one entry are separate records, joined by “and”; a condition that tells them apart may be missing. Equal entries are not always repeated. Where two headings read alike, the source gives them in different places.

Experiments:
Format in all cases: binding
[1] = molecular target: T1, BRD4(1)^L94C (Homo sapiens, UniProt O60885, L94C); assay: Protein LCMS labeling assay 1; details: for Labeled Protein (%) L94C 1 h / Labeled Protein (%) L94C 4 h: 50 μM compound, 10 µM protein, 37 °C, mean of three ± s.e.m., ND = not detectable
T1 construct: Characterization of His6-BRD4(1)L94C; made in house; host or cells: E. coli BL21 (DE3)
Protocol: (§1) The resulting library of 22 fragments was screened for BRD4(1)^L94C binding at a concentration of 50 μM using a protein LCMS assay (referred to as “labeling assay 1”). […] To assess the selectivity of the fragments for the labeling of C94, hits were also screened against BRD4(1)^WT under the same conditions. […] The acrylamide-based fragment, 12, labeled 98% of BRD4(1)^L94C after 4 h. While 95% of the protein was labeled once, 3% of the protein was labeled twice (Figure 5D). […] Fragment 14, designed by appending a β-dimethylaminomethyl acrylamide to the structure of 12, led to 74% of singly labeled BRD4(1)^L94C after 4 h with no labeling of BRD4(1)^WT observed (Table 1 and Figure 5E). […] However, only 9.9% of labeled BRD4(1)^L94C was observed, substantially lower than the 56% labeling observed for the corresponding 3-methyl regioisomer 10 (Table 1). […]
(§2) Assays were performed in 1.5 mL Eppendorf tubes at 37 °C and gently shaken, unless otherwise stated.
(§3) Experiments were performed in a protein LCMS assay buffer, with 10 µM protein, and 50 µM of the desired compound with a final DMSO concentration of 0.5% (Table S16). Time points were taken at 0, 1 and 4 h, unless otherwise stated, where a 20 µL sample of the reaction mix was taken, diluted with 100 µL Milli-Q water, and flash frozen. Samples were thawed immediately prior to LCMS analysis on a Waters Xevo G2-S system (Waters) fitted with a ProSwift™ RP-2H PSDVB Reversed Phase HPLC Column (Thermofisher). Data was analysed and processed using MassLynx. The total ion chromatograms (TIC) were extracted (region containing protein) and the summed scans were deconvoluted (using MaxEnt). Covalent labeling was calculated using intensities of the unlabeled and labeled protein (Equation 1). Figures were made using GraphPad Prism 7.0.
(§4) Table S16. Buffer composition for protein LCMS.
(§5) Buffer Reagent Composition Amount per 1 L
(§6) Protein LCMS Assay Buffer HEPES 25 mM 6.0 g
(§7) Protein Labelling = Intensity of Labelled Peak × 100

[2] = molecular target: T2, BRD4(1)^WT (Homo sapiens, UniProt O60885); assay: Protein LCMS labeling assay 1; details: for Labeled Protein (%) WT 4 h: 50 μM compound, 10 µM protein, 37 °C, mean of three ± s.e.m., ND = not detectable; for Covalent labeling of purified BRD4(1)^WT detected using LCMS: after 20 h incubation
T2 construct: Characterization of His6-BRD4(1)WT; made in house; host or cells: E. coli BL21 (DE3)
Protocol: Before introducing a Cys mutant into the first bromodomain of BRD4 [BRD4(1)], we wanted to rule out the possibility that the native Cys residues C125 and C136 (Figures 2A and S1), would react with electrophilic fragments. To test this, we incubated two KAc-mimicking methylisoxazole-based reactive fragments (1 and 2, Figure 2C) with purified BRD4(1)^WT.
as §1, §2, §3, §4, §5, §6, §7

[3] = molecular target: T1, BRD4(1)^L94C; assay: Fluorescent labeling of purified protein (CuAAC with TAMRA-PEG3-azide, in-gel fluorescence); details: 50 μM probe, 10 μM protein, 4 h, 37 °C, then CuAAC 1 h
Protocol: When 28, 29, 30, and 42 were incubated with either purified BRD4(1)^L94C or BRD4(1)^WT and subjected to a copper(I)-catalyzed alkyne–azide click reaction (CuAAC) reaction with the fluorescent TAMRA-PEG3-azide dye, all clickable probes labeled the mutant protein and could be visualized using fluorescence imaging of a gel (Figure 6).
Figure 6 Clickable probes 28, 29, 30, and 42 covalently label BRD4(1)^L94C and undergo a subsequent CuAAC reaction with TAMRA-PEG3 azide to fluorescently label the protein, as shown by in-gel fluorescence imaging. Compounds 28, 29, 30, 41, and 42 (50 μM) were incubated with purified BRD4(1)^L94C or BRD4(1)^WT (10 μM) for 4 h at 37 °C, followed by CuAAC reaction with TAMRA-PEG3 azide for 1 h and separation of components by SDS-PAGE. For all compounds other than 30, only labeling of BRD4(1)^L94C was observed. […]
Fluorescent labeling of purified proteins
Assays were performed in 1.5 mL Eppendorf tubes at 37 °C, and gently shaken, unless otherwise stated.
The desired click probe (50 µM) was incubated with protein (10 µM) in protein LCMS buffer for 4 h, after which TAMRA-PEG3-Azide (200 µM), TCEP·HCl (1 mM), TBTA (100 µM), and CuSO4 (1 mM) were added and incubated for a further 1 h at room temperature in the dark. A 25 µL sample of the […]
reaction mix was taken and 8 µL of Lamelli buffer added, and the samples denatured by heating at 95 °C for 10 min. Samples were separated by gel electrophoresis on NuPAGE™ 4–12%, Bis-Tris precast polyacrylamide gels (Thermofisher). Following electrophoresis, gels were stained for 15 min with InstantBlueTM Coomasie® stain (Abcam), destained, and imaged using Bio-rad molecular imager.
Bio-rad Image Lab 6.1 was used to process the data. […]
InstantBlueTM Coomasie® stain (Abcam), destained, and imaged using Bio-rad molecular imager. […]
MEM media. Cells were then harvested and lysed using the previously described protocol above. […]

[4] = molecular target: T1, BRD4(1)^L94C; assay: AlphaScreen H4_1–20(KAc)4 peptide displacement
Protocol: Under these conditions, all three fragments displaced the peptide from BRD4(1)^L94C, which is consistent with the fragments binding to BRD4(1)^L94C in the expected location (Table 2). […] The longer the mutant protein and electrophile are incubated together, the more time there is for a covalent interaction to occur. […]
(§8) Dose response AlphaScreen™
(§9) The peptide (Table S17) was supplied at >95% purity by GenScript and was stored as 1 mM stocks in […]
(§10) Table S17. Amino acid sequences of peptides used in AlphaScreen™.
(§11) Peptide Amino Acid Sequence […]
(§12) The assay buffer (Table S18, pH 7.6) was filtered through a 0.22 μm filter before use. The buffer is stored at 4 °C as a 5× solution without bovine serum albumin (BSA), which was added on the day of use. The compounds, proteins, and peptides were dispensed into a ProxiPlate-384 Plus (Perkin Elmer) using a Thermo-Fisher electronic multi-channel pipette. For the incubation steps, the plates were sealed, shaken for 10 seconds at 600 rpm on a plate oscillator, and incubated at room temperature in darkness for 30 min or 3.5 h. Ni2+ chelate acceptor and streptavidin donor beads were prepared as a mixture in a 1:300 dilution (0.007 mg/mL final assay concentration, added to the plates and incubated for a further 30 min at room temperature. Plates were read using a SynergyTM 2 MultiMode Microplate Reader using the inbuilt AlphaScreen™ 384 ProxiPlate function: excitation 680 nm, 0.18 sec; emission […]
(§13) Table S18. Composition of assay buffer used in AlphaScreen™ experiments, adjusted to pH 7.6 using an aqueous NaOH […]
(§14) Reagent Composition Mass (mg) for 50 mL
(§15) 50 mM DMSO stock solutions of the compounds were serially diluted, and dispensed into wells (5 μL).
(§16) The protein-peptide mixes (7 μL) for each combination were prepared following the specified final assay concentration (Table S19), and dispensed into wells. Assay beads (8 μL) were added to attain a final assay volume of 20 μL. Dose response curves were obtained for each compound in triplicate, with serial 1:2 dilutions. Data was processed by fitting a four-parameter equation (Equation 2) to calculate IC50 values using Prism software.
(§17) Table S19. Final assay concentrations of each peptide-protein combination.
(§18) Protein Peptide Protein FAC (nM) Peptide FAC (nM)
(§19) Response = Bottom + Top − Bottom

[5] = molecular target: T2, BRD4(1)^WT; assay: AlphaScreen H4_1–20(KAc)4 peptide displacement
Protocol: as §8, §9, §10, §11, §12, §13, §14, §15, §16, §17, §18, §19

[6] = IC50 (μM) L94C 1 h, 1 h incubation at RT, mean of three ± s.e.m.
[7] = IC50 (μM) L94C 4 h, 4 h incubation at RT, mean of three ± s.e.m.
[8] = 4 h incubation at RT, mean of three ± s.e.m.

Row | Compound | Labeled Protein (%) L94C 1 h [1] | Labeled Protein (%) L94C 4 h ([1]; 4 h) | Labeled Protein (%) WT 4 h [2] | further results
1 | Cc1noc(NC(=O)CCl)c1-c1ccccc1 [Compound 22] | 5.9 ± 0.3% | 22 ± 0.4% | – | –
2 | C#CCOc1ccc(-c2c(C)noc2NC(=O)/C=C/CN(C)C)cc1 [Compound 29] | 49 ± 2.0% | – | – | Labeling of purified BRD4(1)^L94C, in-gel fluorescence [3]: high levels
3 | Cc1cc(NC(=O)/C=C/CN(C)C)on1 [Compound 13] | 16 ± 0.7% | 52% and 52 ± 0.9% | – | –
4 | C=CC(=O)Nc1onc(C)c1-c1ccccc1 [Compound 12] | 70 ± 0.6% | 98% and 98 ± 0.2% | 3% and 3.0 ± 0.2% | BRD4(1)^L94C protein labeled once ([1]; 50 μM, 4 h): 95%; BRD4(1)^L94C protein labeled twice ([1]; 50 μM, 4 h): 3%; IC50 [4, 6]: 5.83 µM and 5.8 µM; IC50 [4, 7]: 1.27 µM and 1.3 µM; IC50 [5, 8]: > 100 µM
5 | Cc1cc(CCl)on1 [Compound 1] | – | – | – | Covalent labeling of purified BRD4(1)^WT detected using LCMS [2]: no covalent labeling
6 | CC#CC(=O)Nc1cc(C)no1 [Compound 20] | – | 7.8 ± 0.2% | – | –
7 | Cc1cc(NC(=O)CCl)on1 [Compound 21] | 10 ± 0.7% | 32 ± 0.9% | – | –
8 | C#Cc1ccc(-c2c(C)noc2NC(=O)/C=C/CN(C)C)cc1 [Compound 28] | 59 ± 1.9% | – | – | Labeling of purified BRD4(1)^L94C, in-gel fluorescence [3]: high levels
9 | Cc1noc(C)c1-c1cc(O)cc(C(O)c2cccnc2)c1 (centres unmarked) [OXFBD04 (3), reference compound] | – | – | – | IC50 ([4]; IC50, prevention of H4_1–20(KAc)4 peptide binding to BRD4(1)^L94C, equals the 4 h value of Figure S13): 0.08 ± 0.009 µM; IC50 ([4]; read-out: IC50 (μM) L94C 1 h, 1 h incubation at RT, mean of three ± s.e.m.): 0.059 ± 0.11 µM; IC50 ([5]; equals the 4 h value of Figure S14): 0.183 ± 0.025 µM
10 | Cc1cc(CCl)no1 [Compound 2] | – | – | – | Covalent labeling of purified BRD4(1)^WT detected using LCMS [2]: no covalent labeling
11 | Cc1noc(NC(=O)/C=C/CN(C)C)c1-c1ccccc1 [Compound 14] | 27 ± 2.2% | 74% and 74 ± 2.6% | no labeling | IC50 [4, 6]: 8.69 µM and 8.7 µM; IC50 [4, 7]: 4.45 µM and 4.4 µM; IC50 [5, 8]: > 100 µM

Further lines, with some results ahead:

Row | Labeled Protein (%) L94C 1 h [1] | Labeled Protein (%) L94C 4 h ([1]; 4 h) | Labeled Protein (%) WT 4 h [2] | Compound | further results
12 | 60 ± 0.7% | 58 ± 1.9% | 22 ± 1.4% | C#CC(=O)c1cc(C)on1 [Compound 9] | –
13 | 7.6 ± 0.4% | 9.9% and 9.9 ± 0.4% | – | C=CC(=O)Nc1cc(C)on1 [Compound 11] | –
14 | 100 ± 0.0% | 100 ± 0.0% | – | C=CC(=O)c1onc(C)c1-c1ccccc1 [Compound 6] | –
15 | 100.0 ± 0.0% | 100.0 ± 0.0% | 86 ± 7.4% | C=CC(=O)c1cc(C)on1 [Compound 5] | –
16 | 21 ± 1.8% | 56% and 56 ± 0.9% | – | C=CC(=O)Nc1cc(C)no1 [Compound 10] | –
17 | 100 ± 0.0% | 100 ± 0.0% | 83 ± 1.2% | C=CC(=O)c1cc(C)no1 [Compound 4] | –
18 | 44 ± 0.6% | 42 ± 1.4% | 29 ± 0.8% | C#CC(=O)c1cc(C)no1 [Compound 8] | –
19 | 3.4 ± 0.2% | 15 ± 1.3% | – | C#CC(=O)Nc1cc(C)no1 [Compound 19] | –
